{
  "source": "patent US8822503B2",
  "about": "“2-pyridone compounds” (Taisho Pharmaceutical Co., Ltd, priority 2009, dated 2014)",
  "data": [
    {"molecular_target": "T1, human liver GK (Homo sapiens, UniProt P35557)", "T1 construct": "GST (glutathione S-transferase) (N); made in house; host or cells: E. coli", "T1 sequence (P35557 1-466 isoform P35557-2)": "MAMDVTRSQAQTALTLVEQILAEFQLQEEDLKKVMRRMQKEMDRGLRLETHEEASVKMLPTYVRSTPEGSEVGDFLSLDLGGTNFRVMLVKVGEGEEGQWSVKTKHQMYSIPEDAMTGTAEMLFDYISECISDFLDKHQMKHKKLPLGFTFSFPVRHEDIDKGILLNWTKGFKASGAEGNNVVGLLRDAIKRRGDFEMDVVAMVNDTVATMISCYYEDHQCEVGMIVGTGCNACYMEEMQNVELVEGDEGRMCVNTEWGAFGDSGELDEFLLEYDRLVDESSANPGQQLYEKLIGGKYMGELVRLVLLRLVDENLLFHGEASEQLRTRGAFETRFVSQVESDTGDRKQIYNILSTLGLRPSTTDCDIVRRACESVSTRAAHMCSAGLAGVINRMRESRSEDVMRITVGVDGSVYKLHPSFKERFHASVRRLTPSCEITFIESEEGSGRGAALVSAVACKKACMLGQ", "assay": "GK activation test", "format": "biochemical", "details": "test compound concentration needed to activate 50% of maximum activation ability; 4 mM 14C-labeled glucose, 2 mM ATP, room temperature, 20 minutes", "in_short": "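GST-tagged human liver GK from E. coli (0.24 μg/well) with 4 mM 14C-glucose, 2 mM ATP in Hepes-KOH pH 7.1, KCl, MgCl2, DTT, 1% DMSO, 20 min room temperature. Labeled glucose 6-phosphate captured on anion resin, eluted and counted. EC50 = concentration giving half of maximal activation.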", "units": {"EC50": "nM"}, "values": [
      {"smiles": "CC(C)(C)c1ccc(/C(=C\\[C@H]2CCN(C(=O)C3CCOCC3)C2)c2ccc(Cl)c(=O)[nH]2)cc1", "note": "[Example 4-93, 6-{(E)-1-(4-tert-Butylphenyl)-2-[(3R)-1-(tetrahydro-2H-pyran-4-ylcarbonyl)pyrrolidin-3-yl]ethenyl}-3-chloropyridin-2(1H)-one]", "EC50": "3000 to 10000"},
      {"smiles": "O=C1CC[C@H](/C=C(\\c2ccc(Cl)cc2)c2ccc(C3CC3)c(=O)[nH]2)N1", "note": "[Example 4-98, 6-{(E)-1-(4-Chlorophenyl)-2-[(2R)-5-oxopyrrolidin-2-yl]ethenyl}-3-cyclopropylpyridin-2(1H)-one]", "EC50": "10 to 500"},
      {"smiles": "O=C1CC[C@H](/C=C(\\c2ccc(C(F)(F)F)cc2)c2ccc(C3CC3)c(=O)[nH]2)N1", "note": "[Example 4-99, 3-Cyclopropyl-6-{(E)-2-[(2R)-5-oxopyrrolidin-2-yl]-1-[4-(trifluoromethyl)phenyl]ethenyl}pyridin-2(1H)-one]", "EC50": "10 to 500"},
      {"smiles": "O=C1CC[C@H](/C=C(\\c2ccc(F)cc2)c2ccc(C3CC3)c(=O)[nH]2)N1", "note": "[Example 4-100, 3-Cyclopropyl-6-{(E)-1-(4-fluorophenyl)-2-[(2R)-5-oxopyrrolidin-2-yl]ethenyl}pyridin-2(1H)-one]", "EC50": "500 to 3000"},
      {"smiles": "O=C1CC[C@H](/C=C(\\c2ccc(Cl)c(Cl)c2)c2ccc(C3CC3)c(=O)[nH]2)N1", "note": "[Example 4-101, 3-Cyclopropyl-6-{(E)-1-(3,4-dichlorophenyl)-2-[(2R)-5-oxopyrrolidin-2-yl]ethenyl}pyridin-2(1H)-one]", "EC50": "10 to 500"},
      {"smiles": "Cc1ccc(/C(=C\\[C@H]2CCC(=O)N2)c2ccc(C3CC3)c(=O)[nH]2)c(F)c1", "note": "[Example 4-102, 3-Cyclopropyl-6-{(E)-1-(2-fluoro-4-methylphenyl)-2-[(2R)-5-oxopyrrolidin-2-yl]ethenyl}pyridin-2(1H)-one]", "EC50": "10 to 500"},
      {"smiles": "O=C1CC[C@H](/C=C(\\c2ccc(C(F)(F)F)c(Cl)c2)c2ccc(C3CC3)c(=O)[nH]2)N1", "note": "[Example 4-103, 6-{(E)-1-[3-Chloro-4-(trifluoromethyl)phenyl]-2-[(2R)-5-oxopyrrolidin-2-yl]ethenyl}-3-cyclopropylpyridin-2(1H)-one]", "EC50": "10 to 500"},
      {"smiles": "O=C1CC[C@H](/C=C(\\c2ccc(F)c(Cl)c2)c2ccc(C3CC3)c(=O)[nH]2)N1", "note": "[Example 4-104, 6-{(E)-1-(3-Chloro-4-fluorophenyl)-2-[(2R)-5-oxopyrrolidin-2-yl]ethenyl}-3-cyclopropylpyridin-2(1H)-one]", "EC50": "500 to 3000"},
      {"smiles": "O=C1CC[C@H](/C=C(\\c2ccc(Cl)c(C(F)(F)F)c2)c2ccc(C3CC3)c(=O)[nH]2)N1", "note": "[Example 4-105, 6-{(E)-1-[4-Chloro-3-(trifluoromethyl)phenyl]-2-[(2R)-5-oxopyrrolidin-2-yl]ethenyl}-3-cyclopropylpyridin-2(1H)-one]", "EC50": "10 to 500"},
      {"smiles": "Cc1ccc(/C(=C\\[C@H]2CCC(=O)N2)c2ccc(C3CC3)c(=O)[nH]2)cc1Cl", "note": "[Example 4-106, 6-{(E)-1-(3-Chloro-4-methylphenyl)-2-[(2R)-5-oxopyrrolidin-2-yl]ethenyl}-3-cyclopropylpyridin-2(1H)-one]", "EC50": "10 to 500"},
      {"smiles": "Cc1cc(/C(=C\\[C@H]2CCC(=O)N2)c2ccc(C3CC3)c(=O)[nH]2)ccc1Cl", "note": "[Example 4-107, 6-{(E)-1-(4-Chloro-3-methylphenyl)-2-[(2R)-5-oxopyrrolidin-2-yl]ethenyl}-3-cyclopropylpyridin-2(1H)-one]", "EC50": "10 to 500"},
      {"smiles": "O=C1CC[C@H](/C=C(\\c2ccc(C(F)(F)F)nc2)c2ccc(C3CC3)c(=O)[nH]2)N1", "note": "[Example 4-108, 3-Cyclopropyl-6-{(E)-2-[(2R)-5-oxopyrrolidin-2-yl]-1-[6-(trifluoromethyl)pyridin-3-yl]ethenyl}pyridin-2(1H)-one]", "EC50": "500 to 3000"},
      {"smiles": "Cc1ccc(/C(=C\\[C@H]2CCC(=O)N2)c2ccc(C3CC3)c(=O)[nH]2)c(Cl)c1", "note": "[Example 4-109, 6-{(E)-1-(2-Chloro-4-methylphenyl)-2-[(2R)-5-oxopyrrolidin-2-yl]ethenyl}-3-cyclopropylpyridin-2(1H)-one]", "EC50": "500 to 3000"},
      {"smiles": "O=C1CC[C@H](/C=C(/c2ccc(C3CC3)c(=O)[nH]2)c2ccc(Cl)cc2C(F)(F)F)N1", "note": "[Example 4-110, 6-{(E)-1-[4-Chloro-2-(trifluoromethyl)phenyl]-2-[(2R)-5-oxopyrrolidin-2-yl]ethenyl}-3-cyclopropylpyridin-2(1H)-one]", "EC50": "500 to 3000"},
      {"smiles": "O=C1CC[C@H](/C=C(\\c2ccc(Cl)c(F)c2)c2ccc(C3CC3)c(=O)[nH]2)N1", "note": "[Example 4-111, 6-{(E)-1-(4-Chloro-3-fluorophenyl)-2-[(2R)-5-oxopyrrolidin-2-yl]ethenyl}-3-cyclopropylpyridin-2(1H)-one]", "EC50": "10 to 500"},
      {"smiles": "O=C1CC[C@H](/C=C(\\c2ccc(F)c(F)c2)c2ccc(C3CC3)c(=O)[nH]2)N1", "note": "[Example 4-112, 3-Cyclopropyl-6-{(E)-1-(3,4-difluorophenyl)-2-[(2R)-5-oxopyrrolidin-2-yl]ethenyl}pyridin-2(1H)-one]", "EC50": "500 to 3000"},
      {"smiles": "Cc1cc(/C(=C\\[C@H]2CCC(=O)N2)c2ccc(C3CC3)c(=O)[nH]2)ccc1F", "note": "[Example 4-113, 3-Cyclopropyl-6-{(E)-1-(4-fluoro-3-methylphenyl)-2-[(2R)-5-oxopyrrolidin-2-yl]ethenyl}pyridin-2(1H)-one]", "EC50": "500 to 3000"},
      {"smiles": "Cc1ccc(/C(=C\\[C@H]2CCC(=O)N2)c2ccc(C3CC3)c(=O)[nH]2)cc1F", "note": "[Example 4-114, 3-Cyclopropyl-6-{(E)-1-(3-fluoro-4-methylphenyl)-2-[(2R)-5-oxopyrrolidin-2-yl]ethenyl}pyridin-2(1H)-one]", "EC50": "10 to 500"},
      {"smiles": "Cc1ccc(/C(=C\\[C@H]2CCC(=O)N2)c2ccc(C3CC3)c(=O)[nH]2)cc1C", "note": "[Example 4-115, 3-Cyclopropyl-6-{(E)-1-(3,4-dimethylphenyl)-2-[(2R)-5-oxopyrrolidin-2-yl]ethenyl}pyridin-2(1H)-one]", "EC50": "10 to 500"},
      {"smiles": "O=C1CC[C@H](/C=C(\\c2ccc(C(F)(F)F)c(F)c2)c2ccc(C3CC3)c(=O)[nH]2)N1", "note": "[Example 4-116, 3-Cyclopropyl-6-{(E)-1-[3-fluoro-4-(trifluoromethyl)phenyl]-2-[(2R)-5-oxopyrrolidin-2-yl]ethenyl}pyridin-2(1H)-one]", "EC50": "10 to 500"},
      {"smiles": "O=C1CC[C@H](/C=C(\\c2ccc(F)c(C(F)(F)F)c2)c2ccc(C3CC3)c(=O)[nH]2)N1", "note": "[Example 4-117, 3-Cyclopropyl-6-{(E)-1-[4-fluoro-3-(trifluoromethyl)phenyl]-2-[(2R)-5-oxopyrrolidin-2-yl]ethenyl}pyridin-2(1H)-one]", "EC50": "500 to 3000"},
      {"smiles": "O=C1CC[C@H](/C=C(/c2ccc(C3CC3)c(=O)[nH]2)c2ccc(C(F)(F)F)cc2C(F)(F)F)N1", "note": "[Example 4-118, 6-{(E)-1-[2,4-Bis(trifluoromethyl)phenyl]-2-[(2R)-5-oxopyrrolidin-2-yl]ethenyl}-3-cyclopropylpyridin-2(1H)-one]", "EC50": "3000 to 10000"},
      {"smiles": "O=C1CC[C@H](/C=C(\\c2cc(C(F)(F)F)cc(C(F)(F)F)c2)c2ccc(C3CC3)c(=O)[nH]2)N1", "note": "[Example 4-119, 6-{(E)-1-[3,5-Bis(trifluoromethyl)phenyl]-2-[(2R)-5-oxopyrrolidin-2-yl]ethenyl}-3-cyclopropylpyridin-2(1H)-one]", "EC50": "500 to 3000"},
      {"smiles": "O=C1CC[C@H](/C=C(\\c2ccc(Cl)nc2)c2ccc(C3CC3)c(=O)[nH]2)N1", "note": "[Example 4-120, 6-{(E)-1-(6-Chloropyridin-3-yl)-2-[(2R)-5-oxopyrrolidin-2-yl]ethenyl}-3-cyclopropylpyridin-2(1H)-one]", "EC50": "500 to 3000"}
    ]}
  ]
}
